Results taken from patent US9441012B2, “Fluorinated epoxyketone-based compounds and uses thereof as proteasome inhibitors” (FLUORINOV PHARMA INC., priority 2012, dated 2016).

Legend:
[1] = system: AML2 mouse xenograft leukemia model; assay: Leukemia AML2 xenograft model; format: in vivo; settings: 30 mg/kg oral gavage
Procedure: Sublethally irradiated NOD-SCID mice bearing an established human tumor xenograft derived from RL and BALB/c mice challenged with the murine tumor cell line AML2 were treated twice weekly on days 1 and 2 (QD×2) with a dose of 30 mg/kg to 200 mg/kg of the compound of Example 1 by oral gavage. Dosing began on Day 6 post tumor challenge.

EKVX = assay: NCI 60 human tumor cell line screen (SRB); format: cell-based; settings: EKVX (Non-Small Cell Lung Cancer); 48 h
LP1 myeloma cells = assay: Combination assays: viability of myeloma LP1 cells (MTS, combination index); format: cell-based, human
Procedure: To examine whether compounds of Formula I can be combined with other conventional and newer anti-multiple myeloma agents, such as dexamethasone and bortezomib, respectively, LP1 myeloma cells were treated for 72 hours with increasing concentrations of compounds of Formula I in combination with dexamethasone or bortezomib. After incubation, cell growth and viability was measured by the MTS assay. The combination index (CI) analysis, where a CI<1 indicates synergy between two drugs, a CI=1 indicates additivity, and a CI>1 indicates antagonism, was used to determine whether the cytotoxicity produced by the combinations with compounds of Formula I were synergistic, additive, or antagonistic.
The effects of combining these agents with a representative of compounds of Formula I i.e. the compound of Example 1 on the viability of myeloma LP1 cells in culture were assessed. LP1 cells were treated for 72 hours with increasing concentrations of the compound of Example 1 in combination with dexamethasone or bortezomib. After incubation, cell growth and viability was measured by the MTS assay.
The combination of the compound of Example 1 and bortezomib was synergistic with Combination Index values of 0.41, 0.46, and 0.88 at Fraction affected (Fa) levels of 0.39, 0.58, and 0.6, respectively (FIG. 2A).
The combination of the compound of Example 1 and dexamethasone was synergistic with Combination Index values of 0.41, 0.44, and 0.5 at Fraction affected levels of 0.43, 0.5, and 0.64, respectively (FIG. 2B).

MM.1S tumor cells = assay: Myeloma MM.1S mouse xenograft model; format: in vivo
Procedure: The mice were irradiated (200 rads) using a Co60 irradiator source. After 24 his, each mouse was inoculated subcutaneously with 5×10^6 MM.1S tumor cells in 0.1 ml PBS for tumor development. Treatments were started when the tumor volume reached 100 mm^3. Each treatment group consisted of 10 mice. The compound of Example 1 was administrated to the tumor-bearing mice according to a specific predetermined regimen.

[2] = target: purified beta proteasome subunits from Thermoplasma acidophilum; whole cell lysates from LP1 (Thermoplasma acidophilum, UniProt P28061); assay: Enzymatic activity of purified proteasomes (FIG. 1); format: biochemical, Thermoplasma acidophilum; human; settings: compared to bortezomib
Procedure: Purified beta proteasome subunits from the archaebacteria Thermoplasma acidophilum (A) or whole cell lysates from the human myeloma cell line LP1 (B).
Increasing concentrations ([…]) of compounds of Formula (I) and bortezomib were incubated with […] purified beta subunits of proteasomes isolated from Thermoplasma acidophilum in assay buffer supplemented with 2 mM ATP. DMSO alone was used as a control. After 1 hour of incubation at 37° C., the Suc-Leu-Leu-Val-Tyr-AMC substrate was added at a final concentration of 40 μM and CT-L proteasome activity was measured as described above for tumor cell lysates.
Purified beta proteasome subunits from the archaebacteria Thermoplasma acidophilum (A) and whole cell lysates from the human myeloma cell line LP1 (B) were used in the study.

[3] = system: primary CD138+ myeloma cells; assay: Viability of primary patient samples (Annexin V, anti-CD138, flow cytometry); format: cell-based, human; settings: 24 hours
Procedure: (§1) Apoptosis was measured by staining cells treated with compounds of Formula I with annexin V-fluorescein isothiocyanate and propidium iodide (both from Biovision Research Products, Mountain View, Calif.) and flow cytometry according to manufacturer's instructions and as previously described [Blood. 2005, 105(10), 4043-4050]. Experiments were performed at least in duplicate and repeated at least twice (n=4-20 data points). Viable primary myeloma cells were identified by staining with phycoerythrin-conjugated mouse monoclonal anti-CD138 antibody (20 μL/[…] cells; Beckman Coulter, Brea, Calif.). The percentage of myeloma cells that were CD138 positive and annexin V negative after compounds of Formula (I) treatment compared with untreated samples was quantified as a marker of cell viability as previously described [Blood. 2007, 109(12), 5430-5438].
(§2) Effects of a representative of compounds of Formula I (the compound of Example 1) on the viability of primary malignant and normal hematopoietic cells isolated from patient samples was also studied. […] Viability of normal hematopoietic cells (CD138−) and myeloma cells (CD138+) were measured by flow cytometry with PE-labeled anti-CD138 and FITC-labeled Annexin V co-staining. […]

[4] = system: normal mononuclear hematopoietic cells (CD138−); assay: as above; format: cell-based; settings: 24 hours
Procedure: as §1, §2

[5] = 100 mg/kg p.o, days 1, 3, 5/wk×4 wks

Sequence of purified beta proteasome subunits from Thermoplasma acidophilum; whole cell lysates from LP1 (P28061 9-211): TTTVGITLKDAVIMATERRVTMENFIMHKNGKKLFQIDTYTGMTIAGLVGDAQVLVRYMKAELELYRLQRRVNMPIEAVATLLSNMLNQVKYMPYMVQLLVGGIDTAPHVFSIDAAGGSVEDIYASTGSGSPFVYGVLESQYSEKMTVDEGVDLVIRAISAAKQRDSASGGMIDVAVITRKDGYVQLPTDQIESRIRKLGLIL
Sequence of purified beta proteasome subunits from Thermoplasma acidophilum; whole cell lysates from LP1 (P25156 whole entry partner): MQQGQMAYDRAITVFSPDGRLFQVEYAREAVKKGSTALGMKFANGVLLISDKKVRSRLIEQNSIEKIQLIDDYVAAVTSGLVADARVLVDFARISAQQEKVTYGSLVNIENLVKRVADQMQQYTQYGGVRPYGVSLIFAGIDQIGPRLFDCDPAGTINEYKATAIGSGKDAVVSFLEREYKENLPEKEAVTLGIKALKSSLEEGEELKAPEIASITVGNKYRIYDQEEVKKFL

Cc1ncc(C(=O)N[C@@H](COC(F)F)C(=O)N[C@@H](COC(F)F)C(=O)N[C@@H](Cc2ccccc2)C(=O)[C@@]2(C)CO2)s1 [Example 1, 2-methyl-thiazole-5-carboxylic acid ((S)-1-{(S)-1-[(S)-1-benzyl-2-((R)-2-methyloxiranyl)-2-oxo-ethylcarbamoyl]-2-difluoromethoxyethylcarbamoyl}-2-difluoromethoxyethyl)-amide]
gross adverse effects including reductions in body weight or alterations in behaviour [1]: no observed gross adverse effects
tumor growth inhibition ([1]; twice weekly days 1 and 2 (QD×2)): greater than 40%
Log10GI50 (EKVX): −6.22
Log10LC50 (EKVX): >−4.00
Log10TGI50 (EKVX): >−4.00
Combination Index (LP1 myeloma cells; combination with bortezomib, Fraction affected 0.39, LP1, 72 hours): 0.41
Combination Index (LP1 myeloma cells; combination with bortezomib, Fraction affected 0.58, LP1, 72 hours): 0.46
Combination Index (LP1 myeloma cells; combination with bortezomib, Fraction affected 0.6, LP1, 72 hours): 0.88
Combination Index (LP1 myeloma cells; combination with dexamethasone, Fraction affected 0.43, LP1, 72 hours): 0.41
Combination Index (LP1 myeloma cells; combination with dexamethasone, Fraction affected 0.5, LP1, 72 hours): 0.44
Combination Index (LP1 myeloma cells; combination with dexamethasone, Fraction affected 0.64, LP1, 72 hours): 0.5
antitumor activity vs. control (MM.1S tumor cells; 50 mg/kg p.o, qd×28 days): statically significant antitumor activity
gross adverse effects including reductions in body weight or alterations in behaviour (MM.1S tumor cells; 50 mg/kg p.o, qd×28 days): no observed gross adverse effects
antitumor activity vs. control (MM.1S tumor cells; [5]): statically significant antitumor activity
gross adverse effects including reductions in body weight or alterations in behaviour (MM.1S tumor cells; [5]): no observed gross adverse effects
effect on the enzymatic activity of purified proteasomes [2]: disrupts the ubiquitin-proteasome system
viability of primary CD138+ myeloma cells over CD138− normal hematopoietic cells ([3]; patient bone marrow or peripheral blood samples): selectively reduced the viability
cell death in the plasma cells of the myeloma patients ([3]; patient samples): nanomolar concentrations
LD50 normal mononuclear hematopoietic cells [4]: > 2.5 µM
